Results from patent US9611283B1, “Methods for inhibiting cell proliferation in ALK-driven cancers” (ARIAD Pharmaceuticals, Inc., priority 2013, dated 2017).
Where two headings read alike, the source gives them in different places.

Legend:
[1] = tested on: Parental Ba/F3 cells; test: In vitro viability / Ba/F3 cellular proliferation assay, parental cells; assay type: cell-based; settings: Mus musculus; for IC50: BaF3
[2] = target: Ba/F3 cells expressing EML4-ALK 1151 T insertion (Homo sapiens, UniProt Q9UM73, DUP1151-1151); test: Ba/F3 cellular proliferation assay, EML4-ALK 1151 T insertion; settings: Table 2
[3] = tested on: EML4-ALK S1206R tumors; test: Pharmacodynamics: p-ALK in EML4-ALK S1206R tumors in vivo; parameters: species or system mice; settings: sustained for 24 hrs after single dose of 50 mg/kg
Description: Calibration standards were prepared in blank mouse plasma.

[4] = tested on: Ba/F3 EML4-ALK G1269S tumors; test: In vivo efficacy, xenograft of Ba/F3 cells expressing EML4-ALK G1269S; parameters: species or system SCID Beige mice; settings: 50 and 75 mg/kg, once daily oral gavage
[5] = tested on: Ba/F3 EML4-ALK S1206R tumors; test: In vivo efficacy, xenograft of Ba/F3 cells expressing EML4-ALK S1206R; parameters: species or system SCID Beige mice; settings: 75 mg/kg, once daily oral gavage
[6] = tested on: Ba/F3 cells expressing native EML4-ALK; test: Accelerated in vitro mutagenesis screen
[7] = clinical, at MTD; cited from earlier work
[8] = Table 2, Ba/F3 parental, read-out: IC50

Question: With `CCc1cc2c(cc1N1CCC(N3CCOCC3)CC1)C(C)(C)c1[nH]c3cc(C#N)ccc3c1C2=O` [CH5424802] as the compound, how does the IC50 [1, 8] read?
Answer: Its IC50 is over 10 µM.

Question: Which IC50 [1, 8] does the source give for `COc1cc(N2CCC(N3CCN(C)CC3)CC2)ccc1Nc1ncnc(Nc2ccccc2S(=O)(=O)C(C)C)n1` [ASP3026] here?
Answer: Its IC50 is over 10 µM.

Question: What about the IC50 [2] of the same compound?
Answer: Its IC50 is 5.94 ± 2.28 µM.

Question: Which IC50 ([1]; Table 1, Parental Ba/F3 (IL-3), 72 h, n = 5, read-out: IC50s) does the source give for `COc1cc(N2CCC(N3CCN(C)CC3)CC2)ccc1Nc1ncc(Cl)c(Nc2ccccc2P(C)(C)=O)n1` [Compound 1] here?
Answer: Its IC50 is 2.19 ± 0.41 µM.

Question: And the IC50 [1, 8]?
Answer: The IC50 was 4.58 ± 1.55 µM.

Question: And the p-ALK inhibition [3]?
Answer: Its p-ALK inhibition is 40-60%.

Question: And the “tumor response in xenograft” value [4]?
Answer: Its value is “complete tumor regression”.

Question: And the “tumor response in xenograft” value [5]?
Answer: The value was “tumor growth inhibition”.

Question: And the mutations recovered ([6]; at 500 nM (S1206R))?
Answer: The mutations recovered was “only one”.

Question: What about the “concentration that completely suppressed the emergence of resistance” value ([6]; mutagenesis screen) of the same compound?
Answer: Its value is 1000 nM.

Question: And the “mutants recovered in the screen” value ([6]; number of different mutants)?
Answer: Its value is “ten”.

Question: What does the source list for `C[C@@H](Oc1cc(-c2cnn(C3CCNCC3)c2)cnc1N)c1c(Cl)ccc(F)c1Cl` [crizotinib]?
Answer: inhibition at […] ([1]; BaF3, read-out: inhibition of parental Ba/F3 cell proliferation): > 90%; IC50 [1, 8]: 2.06 ± 0.373 µM; median Ctrough [7]: ~225 ng/mL
